This note sets out measurements from US4956381A, “Treating tissue calcium depletion or degenerative processes in bone or cartilage” (Sandoz Ltd., priority 1987, dated 1990).

Where two headings read alike, the source gives them in different places.

Data set [1] deals with mouse peritoneal macrophages. The data set is described as follows: Mouse macrophage monokine inhibition (chondrocyte bioassay). In kind it is cell-based. The note with it: 24 h, substantially pure Z-isomeric form, 3-5 separate experiments in triplicate, read-out: ED50 (suppression of monokine release). On the procedure: Purified IL-1, [Schnyder et al., J. Immunol. […] [c.f. […] J. Rheumatol.
Culture media are diluted 1:1 (v:v) with fresh medium and added to confluent rabbit chondrocytes. […] activity in the chondrocyte culture medium is monitored after a further two days.

Another data set concerns recombinant human IL-1. As to the kind of experiment: Recombinant human IL-1 induced mouse thymocyte proliferation. The class given is cell-based. The note with it: 75 ng/ml rh IL-1. The procedure: Lymphocyte proliferation is the standard test for monokine activity. It is highly sensitive, though relatively unspecific, with IL-2, phorbol myristate acetate, concanavalin A' g-type-prostaglandin and indomethacin-nall effecting disturbance. Human monocyte culture media are prepared as described under I.I.b. above, diluted 1:10, 1:20 and 1:40 (v:v), and added to […] (obtained from C3H/HeJ mice) Dulbecco's modified Eagle's medium, containing 20 mM hydroxyethyl-piperazin-ethane-sulfonic acid, 12 mM NaHCO3, 2 mM glutamine, 2% foetal bovine serum, 10 μM 2-mercaptoethanol, […] and antibiotics. The cells are incubated for 2 days in 96-well culture plates and the proliferation rate determined using a ^3 H-thymidine pulse (1 μC/well) during the final 6 hours. The incorporated radioactivity is collected on filter paper and counted. […] Thus determined ED50 s for the compounds D2 and K1 each in substantially pure Z-isomeric form in a series of 2 separate experiments each with 3 parallel determinations are of the order of 30 μM
In order to rule out an antagonistic effect or a direct influence of the COMPOUNDS OF THE INVENTION on the proliferation of mouse thymocytes which are used above in the LAF-test, the effect of the COMPOUNDS OF THE INVENTION on the incorporation of ^3 H-thymidine Is determined after thymocyte stimulation with recombinant human IL-1 or IL-2.

The subject of another data set is monocytes. The data set is described as follows: Effect on monocyte adherence. The class given is cell-based, human. The note with it: 4 h; DNA and LDH of adherent monocytes. On the procedure:
Monocytes of freshly harvested human mononuclear cells are prepared in presence of the compound to be tested or a vehicle. After 4 h the medium is aspirated and the cell monolayer is washed as usual. The adherent monocytes are then lysed using digitonin in water, and the amount of DNA and the activity of the cytosol enzyme LDH is measured.

The test system of another data set is human monocytes. The data set is described as follows: Effect on the secretion of monokines (IL-1, TNF-α, IL-6). In kind it is cell-based. The following applies: IL-1 and TNF-α by RIA, IL-6 by bioassay. On the procedure:
Besides IL-1, TNF-α and IL-6 are two well recognized monokines that are released from stimulated monocytes.
Culture media from human monocytes are prepared as described above. The IL-1 and TNF-α content is monitored by the RIA-test, IL-6 by bioassay as disclosed below.
To measure IL-6 in conditioned media from human monocytes, 2.4×10^4 cells/ml B13.29 in 0.2 ml are cultured on 96-well plates (Costar) for 48 h with culture media, diluted in serum free Iscove's modified Dulbecco's medium supplemented with 200 U/ml of recombinant IL-6, 50 μM 2-mercaptoethanol and antibiotics. The proliferation rates are determined using a ^3 H-thymidine pulse (1 μC/well) during the final 6 h. The incorporated radioactivity is collected on filter paper, counted and related to a standard preparation of IL-6.

The subject of the next data set is Calvaria halves. The data set is described as follows: Prevention of bone resorption: calcium release from calvaria. The class given is cell-based, Swiss albino mice. The note with it: Mus musculus. On the procedure:
(§1) Calvaria halves (frontal and parietal parts) from 4-5 day Swiss albino mice are cultured on stainless steel grids in BGJ bone tissue culture medium, supplemented with 1 mg/ml BSA at the interphase of medium and gas in a humidified atmosphere (95% air/5% CO2 ) at 37° C. - c.f. Reynolds et al. in "Organ Culture in Biomed. Res." eds. Balls and Mamichendam, Cambridge University Press, p.p. 355-366 (1976).
(§2) Influence of test substance at varying concentrations on calcium release into :he test medium in the presence of calcium release stimulators [PGE2, LPS or […] (1,25D3)]is determined. For this purpose calcium concentrations are measured in bone culture supernatants obtained from 72 and 144 hour cultures and in TCA extracts of the calvaria at the end of culture by spectrometric methods [Gindler et al., Am. J. Clin. Pathol. 58, 376-382 (1972)]. Activity of lysosomal enzyme N-acetyl-glucose-aminidase in bone culture supernatants and in Triton 100 extracts of calvaria after culture is also determined employing the method of Banerjee and Basu, Biochem. J., 45, 113-118 (1975). Changes in enzyme activity are expressed as μ units/calvarium half and as % release.
(§3) (For the calculation of IC50 values the difference between resorption rate in control cultures and resorption in maximally stimulated cultures is taken as 100 %. The IC50 is taken as the concentration of test substance which inhibits maximum resorption by 50 %)

For data set [2], the system named is lysosomal enzyme N-acetyl-glucose-aminidase. The data set is described as follows: Prevention of bone resorption: N-acetyl-glucose-aminidase release from calvaria. In kind it is cell-based, Swiss albino mice. The note with it: Mus musculus, read-out: IC50 N-acetylglucose-aminidase. On the procedure: as §1, §2, §3
The next data set has as its system pulmonary fibrosis. The data set is described as follows: Pulmonary fibrosis (bleomycin induced). The following applies: ca. 2.5 to 60 mg/kg/day p.o.; substantially pure Z-isomeric form; vs placebo. The class given is in vivo, New Zealand white rabbits. The procedure:
Testing is carried out in accordance with the general methodology described by G. J. Laurent et al. in Eur. J. Clin. Invest. (1981) 11, 441-448. Pulmonary fibrosis is induced in groups of 4 New Zealand white rabbits (aged 127 days at commencement of the experiment), each weighing 2.0-2.5 kg, by intratracheal instillation of 10 mg/kg bleomycin. The lungs of test animals are examined 2, 4 and 8 weeks later.

Data set [3] is described as follows: Acute toxicity (LD50) in rats. The note with it: rat, in vivo, substantially pure Z-isomeric form.
In a further data set the test system is beagle dogs. The data set is described as follows: Tolerability / pilot toxicology in beagle dogs. The class given is in vivo. The following applies: up to 200 mg/kg/day for 26 weeks.

In general, LD50 refers to the dose expected to kill half of the subjects tested. A lower LD50 goes with a more toxic substance. With `COC1=Cc2ccccc2/C(=C/C(=O)O)c2ccsc21` [Compound D2, [10-Methoxy-4H-benzo[4,5]cyclohepta[1,2-b]thiophen-4-ylidene]-acetic acid], the IC50 in data set [1] was about 100 µM; with Calvaria halves (in the presence of 1,25D3), 38 µM; with Calvaria halves (in the presence of LPS), 28 µM; in the data set on Calvaria halves (in the presence of PGE2), 22 µM; in data set [2] (in the presence of 1,25D3), 37 µM; in data set [2] (in the presence of LPS), 8.3 µM. In addition, the IC50 in data set [2] (in the presence of PGE2) was 7.9 µM. The “concentration dependency of influence on rh IL-1 induced proliferation” value in the data set on recombinant human IL-1 is “no concentration dependency is detectable”. Besides, in the data set on recombinant human IL-1 (3H-thymidine incorporation, mouse thymocytes), the “influence on recombinant human IL-1 induced proliferation” value is “no significant influence”. In addition, the “adherence of the monocytes” value in the data set with monocytes was “neither the COMPOUNDS OF THE INVENTION, in particular compound D2, nor the vehicle reduce the adherence of the monocytes”. Further, the “inhibition of release of IL-1 compared with IL-6 and TNF-α” value in the data set with human monocytes was “inhibit the release of IL-1 in a more significant rate than that of IL-6 and TNF-α”. Also, in the data set on pulmonary fibrosis, the pulmonary fibrosis entry is on record as “substantial reduction of pulmonary fibrosis”. This compound returned an LD50 at 168 h in data set [3] (iv, 7 days) of 50 mg/kg. Besides, in data set [3] (po, 14 days), the LD50 at 336 h came to 1720 mg/kg. The tolerability result in the data set on beagle dogs is given as “generally well tolerated”.
